Measured values taken from patent US20250275993A1, “GLYCOSYLATION INHIBITORS AS THERAPEUTICS FOR STROKE” (The Regents of the University of California, priority 2022, published 2025).
“Also recorded” adds a separate entry of the source.

Legend:
[1] = system: bovine choroidal microvascular endothelial cells (BCEC); experiment: BCEC proliferation assay (AlamarBlue / crystal violet); type: cell-based; conditions: for stimulation of BCEC proliferation by other hexosamines and structurally related molecules: with or without VEGF, tested alongside ManN
Procedure: The effect of ManN on EC proliferation was assessed.
AlamarBlue detects mitochondria activity as an indication of cell viability which correlates with cell number at certain ranges.
Proliferation assays with BCECs and BRECs were performed. Log-phase growing BCECs or BRECs (passage <10) were trypsinized, re-suspended and seeded in 96-well plates (no coating) in low-glucose DMEM supplemented with 10% bovine calf serum, 2 mM glutamine, and antibiotics (growth medium), at a density of 1200-1500 cells per well in 200 μl volume. All reagents were added at the indicated final concentrations. After 3-6 days, cells were incubated with AlamarBlue for 4 hrs. Fluorescence was measured at 530 nm excitation wavelength and 590 nm emission wavelength. The experiments were repeated at least three times. […] 20% methanol or 0.05% DMSO served as negative controls. […] Human RMVECs and human adult DMVECs were split into Gelatin-coated 96 wells (2000 cells per well) in low glucose DMEM containing 10% FBS. 1200 cells/well was set up for proliferation assay in low glucose media containing 0.5% FBS. Data was collected at day 4 or 5. HUVEC (p7-10) were grown on gelatin-coated plate until it reached 70-80% confluency.
On the day of the assay, cells were dissociated with 0.05% trypsin, which was neutralized with 0.5% FBS-containing EBM. Cells were briefly spun and then re-suspended in 0.5% FBS-media. Cells were counted and plated in 96-well, 1000 cells/well. Triplicate wells were used for each treatment. Data were collected at day 3, and then cells were fixed in 4% paraformaldehyde for 15 min before adding crystal violet. Cell-covered areas were quantified after taking pictures by Image J software.

Bip, CHOP, ATF-6 = experiment: Western blot of UPR responsive proteins in BCECs; type: cell-based, bovine; conditions: for restoration of ATF-6 expression: ManN at 400 μM
[2] = system: BCEC confluent monolayers; experiment: BCEC scratch assay; type: cell-based, bovine; conditions: over 48 hours relative to control
Procedure: BCECs (passage 6-10) and HUVEC (passage 6-8) were used in this assay. Cells were grown until about 80% confluency in 6-well plates, washed twice with PBS and then starved in serum-free DMEM (low Glucose, Hyclone) for 5 hrs before making a “scratch” using 1 ml tip. Cell monolayers were briefly washed once with serum-free media, followed by various treatments in media containing 1% FBS. 48 hrs later, the assay was stopped by adding 2 ml 4% paraformaldehyde. 20 min later, fixed cells were stained with 1 ml Crystal Violet (Sigma). Plates were washed gently under the running tap water and air-dried before taking pictures. Images were acquired by ZEISS Discovery […] microscopy equipped with […] camera. Quantification of wound closure was done using AxioVision LE Rel.4.4 software. Six images were taken for each sample and six measurements (in pixel) were made on each image using AxioVision LE Re1.4.4 software.

JNK/c-jun = experiment: Western blot of JNK pathway activation in BCECs; type: cell-based, bovine; conditions: 40 μM; BCECs; FIG. 7E
Procedure: (§1) Cells were allowed to reach-80% confluency in 12-well plates. […] At various time points, plates were taken out of the incubator and kept on ice. Cell monolayers were first washed once with ice-cold PBS before lysis with 250 μI of Pierce RIPA buffer (ThermoFisher Scientific, Rockford, IL) or use 50 mM Tris-HCl (pH 7.6), 150 mM NaCl, 10% Glycerol, 1% NP-40 containing protease/Phosphatase inhibitor cocktail (100×) (Cell signaling, #5872). Lysates were collected and mixed with 4× Bolt LDS Sample Buffer (Novex, Carlsbad, CA) in the presence of Halt protease inhibitors and phosphatase inhibitor cocktail (ThermoFisher scientific, #NP0007). The samples were subjected to SDS-PAGE (Bolt 4-12% Bis-Tris Plus, Invitrogen) using Bolt MES SDS running buffer or NuPAGE 3-8% Tris-Acetate gel using Tris-Acetate SDS running buffer (Novex). HUVECs (passage 6-8) were plated in EBM-2 basal medium (Lonza) with 0.2% FBS. Following overnight culture, cells were serum-starved in EBM-2 medium for 4 hrs prior to treatment with 50 ng/ml of VEGF165 or vehicle controls for various lengths. Equal amounts of protein lysates were analyzed by SDS-PAGE and blotted with the indicated antibodies. Proteins were transferred using Tris-Glycine buffer with 20% Methanol (Proteonomics grade) (Apex BioResearch Products). Membranes were first incubated with 5% milk in TBST, pH 7.6 (TEKnova, Hollister, CA), followed by blotting with primary and secondary antibodies. ECL anti-rabbit IgG, horseradish peroxidase linked whole antibody from donkey or sheep anti-mouse were obtained from GE Healthcare (UK limited). SuperSignal West Dura Extended Duration substrate was from ThermoFisher Scientific. In some cases, the same PVDF membranes were stripped by 8-min incubation in the Restore Plus Western Blot Stripping Buffer (ThermoFisher Scientific) to show total specific protein expression, followed by second stripping for (3-actin expression.

[3] = system: ERK, AKT, mTOR, CREB, ACC and eNOS; experiment: Western blot of signal transduction pathways in BCECs; type: cell-based, bovine; conditions: 40 μM
Procedure: as §1, with “Cell monolayers were first washed once with ice-cold PBS before lysis with 250 μI of Pierce RIPA buffer (ThermoFisher Scientific, Rockford, IL) or use 50 mM Tris-HCl (pH 7.6), 150 mM NaCl, 10% Glycerol, 1% NP-40 containing protease/Phosphatase inhibitor cocktail (100×) (Cell signaling, #5872).” left out, “The samples were subjected to SDS-PAGE (Bolt 4-12% Bis-Tris Plus, Invitrogen) using Bolt MES SDS running buffer or NuPAGE 3-8% Tris-Acetate gel using Tris-Acetate SDS running buffer (Novex).” left out

ERK and AKT = experiment: Western blot of ERK and AKT activation in HUVEC and hDMVECs; type: cell-based, human; conditions: 40 μM
Procedure: as §1, with “Membranes were first incubated with 5% milk in TBST, pH 7.6 (TEKnova, Hollister, CA), followed by blotting with primary and secondary antibodies. ECL anti-rabbit IgG, horseradish peroxidase linked whole antibody from donkey or sheep anti-mouse were obtained from GE Healthcare (UK limited). SuperSignal West Dura Extended Duration substrate was from ThermoFisher Scientific. In some cases, the same PVDF membranes were stripped by 8-min incubation in the Restore Plus Western Blot Stripping Buffer (ThermoFisher Scientific) to show total specific protein expression, followed by second stripping for (3-actin expression.” left out

retinal vasculature = experiment: Retinal neovascularization after intravitreal injection; type: in vivo, mouse; conditions: 500 ng ManN or Kif, 200 ng bFGF intravitreally; after seven days
Procedure: The effect of ManN and Kif on inducing retinal neovascularization was assessed. The findings in cultured eye-derived EC were extended to a suitable in vivo model system. The mouse retina has been used extensively over the past decades to study both physiological and pathological angiogenesis. To obtain a detailed description of the retinal vasculature, images from retinal flat mounts were processed for vascular area fraction (ratio of area covered by blood vessels to total retinal area). Using this model, the effects of ManN in retinal neovascularization were assessed. Kif was also tested in this model because it is a water-soluble inhibitor and its mechanism of glycosylation inhibition is well established. In addition, it shares with ManN the ability to activate ERK, AKT and stress pathways in BCEC (FIG. 7E).
Assessment of retinal angiogenesis following intravitreal administration was done. Briefly, 6-8 weeks old C57BL/6 male mice were randomly allocated to different groups and anesthetized with ketamine/Xylazine cocktail. The indicated amounts of ManN, Kif or bFGF (R&D systems, AF-233-NA) in 1 μl of PBS and PBS vehicle control were injected intravitreally with a 33-gauge Hamilton syringe. Seven days after injection, animals were euthanized. Eyes were then enucleated and fixed in 4% paraformaldehyde (PFA) for 30 mins. Retinas were separated and stained with anti-CD31 immunofluorescence (IF) to evidence the vasculature. Evaluations were performed by an investigator blinded to the treatment. For CD31 IF, rat anti-mouse antibody (BD Biosciences, CAT #550274) was diluted 1:100 and incubated overnight at 4° C. After 4-hour incubation with the Alexa Fluor-488-conjugated anti-rat antibody (Life Technologies, A11006), whole mounts were imaged via the 488 nm channel using AIR Confocal STORM super-resolution system (Nikon). Quantification of vascular density in choroids and retina was carried out by Image J. Each experiment was repeated three times with similar results, and each treatment group consists of 5 individual samples.

In the case of `O=C(O)CCCc1ccccc1` [4-PBA, 4-phenylbutyric acid], the “reversal of ManN activity on BCEC proliferation by chaperone” value ([1]; pre-treating with 1 mM 4-PBA for 4 hours, absence or presence of VEGF) is reported as “effectively reverse the bell-shaped activity of ManN on BCEC proliferation”, the “effect of chaperone on ManN/VEGF additivity and ManN toxicity” value ([1]; pre-treatment with 1 mM 4-PBA for 8 hours, FIG. 5D) is reported as “abrogated additive effects of 40 μM ManN and 5 ng/ml VEGF and protected cells from toxic effect induced by 2 mM ManN” and the “prevention of CHOP induction by ManN” value (Bip, CHOP, ATF-6; 2 mM 4-PBA or 500 µM TUDCA, ManN at 400 μM and 5 mM) is reported as “could prevent the induction of CHOP expression”. For the same molecule, the “restoration of ATF-6 expression” value (Bip, CHOP, ATF-6) was “restore the expression of ATF-6”.
`O[C@H]1[C@H](O)[C@@H](O)CN2CC[C@H](O)[C@H]12` [Cas, Castanospermine] was tested, and the “gap closing in BCEC scratch assay by glycosylation inhibitors” value [2] was “significant activity”, the “activation of the JNK pathway by glycosylation inhibitors” value (JNK/c-jun) was “able to activate the JNK pathway” and the “activation of ERK and AKT in BCECs by glycosylation inhibitors” value ([3]; FIG. 7E) was “less obvious; also recorded: did not activate ERK”. For the same molecule, the “BCEC proliferation by glycosylation inhibitors” value ([1]; 0.01 to 100 μM, 3 days, absence or presence of 5 ng/ml VEGF) was “stimulated in a dose-dependent fashion”, the “Bip expression by glycosylation inhibitors” value (Bip, CHOP, ATF-6; media without growth factors for 24 hours) was “dose-dependent induction of Bip expression” and the “activation of ERK and AKT in human ECs by glycosylation inhibitors” value (ERK and AKT) was “less obvious”.
With `Cl.NCC(=O)[C@@H](O)[C@H](O)[C@H](O)CO` [D-isoglucosamine, 1-Amino-1-deoxy-D-Fructose hydrochloride] the “stimulation of BCEC proliferation by other hexosamines and structurally related molecules” value (“stimulation of BCEC proliferation” for short) [1] was “None of these molecules stimulated BCEC proliferation”.
With `CC(=O)N[C@@H]1C(O)O[C@H](CO)[C@@H](O)[C@@H]1O` (stereo partly drawn) [ManNAc, N-Acetyl-D-Mannosamine, reference compound] the “activation of ERK, AKT, mTOR, CREB, ACC and eNOS by other sugars” value ([3]; BCECs, FIG. 2C) was “induced a similar activation”.
`CC(=O)N[C@H]1[C@H]([C@H](O)[C@H](O)CO)OC(O)(C(=O)O)C[C@@H]1O` (stereo partly shown) [N-Acetylneuraminic acid] was tested, and the “stimulation of BCEC proliferation” value [1] was “None of these molecules stimulated BCEC proliferation”.
For `C[C@H](CCC(=O)NCCS(=O)(=O)O)[C@H]1CC[C@H]2[C@@H]3[C@@H](O)C[C@@H]4C[C@H](O)CC[C@]4(C)[C@H]3CC[C@]12C` [TUDCA, tauroursodeoxycholic acid], the “restoration of ATF-6 expression” value (Bip, CHOP, ATF-6) was “much weaker”.
In the case of `N[C@H]1C(O)O[C@H](CO)[C@H](O)[C@@H]1O` (stereo partly drawn) [galactosamine, D-(+)-Galactosamine], the “stimulation of BCEC proliferation” value [1] is reported as “none of these hexosamines had significant stimulatory effects”.
In the case of `N[C@H]1C(O)O[C@H](CO)[C@@H](O)[C@@H]1O` (stereo partly drawn) [glucosamine, D-(+)-Glucosamine], the “stimulation of BCEC proliferation” value [1] is reported as “none of these hexosamines had significant stimulatory effects”.
With `CNC[C@H](O)[C@@H](O)[C@H](O)[C@H](O)CO` [meglumine, Meglumine] the “stimulation of BCEC proliferation” value [1] was “None of these molecules stimulated BCEC proliferation”.
With `C[C@@H](O[C@H]1[C@H](O)[C@@H](CO)OC(O)[C@@H]1N)C(=O)O` (stereo partly shown) [muramic acid, Muramic acid] the “stimulation of BCEC proliferation” value [1] was “None of these molecules stimulated BCEC proliferation”.
In the case of “bFGF: bFGF purchased from R&D systems, positive control”, the “increase in density of retinal vessels vs PBS group” value (retinal vasculature) is reported as “about 35%”.
